Test results from paper PMC6938345, “Inhibition of complement activation, myeloperoxidase, NET formation and oxidant activity by PIC1 peptide variants” (PLoS ONE, 2019).
“Also recorded” adds a separate entry of the source.

Target: T1, C1q (Homo sapiens, UniProt P02745+P02746+P02747)
T1 construct: purchased Complement Technology (Tyler, TX)
Test: C1q binding ELISA-type assay
Conditions: C1q as capture substrate
Protocol: An Immunlon-2 HB ELISA plate was coated with 1 μg/ml C1q or MPO in bicarbonate buffer overnight at 4 °C. The plates were washed with PBST (phosphate buffered saline + 0.1% Tween) and then blocked with 1% gelatin/PBS for 2 hours at room temperature. After washing, the plates were incubated with PA or sarcosine variant peptides starting at 2.5 mg/ml and then serially diluted in 1% gelatin/PBS for 1 hour at room temperature. After washing, the plates were probed with rabbit anti-PA (developed with Cocalico Biologicals, Reamstown, PA) at 1:1000 in 1% gelatin/PBS for 1 hour, room temperature, followed by a goat anti-rabbit HRP (Sigma Aldrich, St Louis, MO) at 1:1,000 in 1% gelatin/PBS for 1 hour at room temperature with a washing step in between. Wells were developed using TMB substrate solution, stopped using 1 N H2SO4, and read at 450 nm in a plate reader.
We then tested peptide variant binding to C1q in an ELISA-type assay in which the C1q is used as the capture substrate. Binding curves for each peptide is shown in Fig 1C, from which half-maximal binding concentrations were calculated (Fig 1D). […] Higher concentrations of DMSO interfere with the detecting reagents resulting in a partial binding curve.

T1 sequence (P02745 23-245): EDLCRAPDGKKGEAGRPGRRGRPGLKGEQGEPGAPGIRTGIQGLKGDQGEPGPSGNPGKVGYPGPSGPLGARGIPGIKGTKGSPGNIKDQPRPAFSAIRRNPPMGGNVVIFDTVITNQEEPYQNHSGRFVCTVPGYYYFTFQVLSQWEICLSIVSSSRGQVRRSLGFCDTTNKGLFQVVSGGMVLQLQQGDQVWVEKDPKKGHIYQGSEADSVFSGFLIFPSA
T1 sequence (P02746 28-253): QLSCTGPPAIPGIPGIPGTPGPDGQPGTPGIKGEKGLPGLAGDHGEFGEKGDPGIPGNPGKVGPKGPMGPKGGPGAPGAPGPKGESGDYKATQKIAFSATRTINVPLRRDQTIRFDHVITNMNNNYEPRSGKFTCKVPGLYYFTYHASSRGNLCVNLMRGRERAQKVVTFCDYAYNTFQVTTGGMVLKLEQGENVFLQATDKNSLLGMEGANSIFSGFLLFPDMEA
T1 sequence (P02747 29-245): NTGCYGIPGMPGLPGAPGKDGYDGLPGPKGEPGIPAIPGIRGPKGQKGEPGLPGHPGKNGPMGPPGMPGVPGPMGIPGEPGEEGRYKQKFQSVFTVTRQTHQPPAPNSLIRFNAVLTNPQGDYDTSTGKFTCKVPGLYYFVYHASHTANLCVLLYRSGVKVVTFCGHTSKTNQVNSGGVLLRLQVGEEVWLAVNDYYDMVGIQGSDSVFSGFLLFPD

**Q.** With `CC[C@H](C)[C@H](N)C(=O)N[C@@H](C)C(=O)N[C@@H](CC(C)C)C(=O)N[C@H](C(=O)N[C@@H](CC(C)C)C(=O)N[C@@H](CCC(=O)O)C(=O)N1CCC[C@H]1C(=O)N(C)CC(=O)N[C@@H](CS)C(=O)N[C@@H](CS)C(=O)N[C@@H](CCC(N)=O)C(=O)N[C@@H](CCC(=O)O)C(=O)N[C@@H](CCCNC(=N)N)C(=O)N[C@@H](C)C(=O)N[C@@H](C)C(=O)O)[C@@H](C)CC` [I8] as the compound, how does the “binding to C1q (in words)” value read?
**A.** The value was “superior binding to C1q; also recorded: slightly superior to that of PA-dPEG24”.
